The results in this text go back to ChEMBL document CHEMBL1201862, “PubChem BioAssay data set” (2004).

The target in test [1] is Disintegrin and metalloproteinase domain-containing protein 17 (Homo sapiens, UniProt P78536). Briefly: exosite inhibitors of ADAM17, dose response, biochemical (AID 743260).
The nature of test [2]: inhibition of ADAM10 peptide cleavage – biochemical, FRET peptide substrate, recombinant human ADAM10, selectivity assay for ADAM17 exosite inhibitor project, dose response (AID 743259).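 Also: ADAM10 enzyme cleaving a FRET peptide substrate.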
Test [3] in a line: HIV-1 Vif–A3G interaction blockers – biochemical, TR-FRET, GST-Vif 1-94, biotin-A3G peptide, dose response retest, primary screen (AID 1117319).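 Also: TR-FRET signal of purified GST-Vif binding a biotinylated A3G peptide; inhibitors lower the FRET signal by blocking Vif and A3G binding.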 In kind it is functional.
Test [4] concerns the target T1, Tyrosyl-DNA phosphodiesterase 2 (Homo sapiens, UniProt O95551).
T1 sequence (O95551 whole entry): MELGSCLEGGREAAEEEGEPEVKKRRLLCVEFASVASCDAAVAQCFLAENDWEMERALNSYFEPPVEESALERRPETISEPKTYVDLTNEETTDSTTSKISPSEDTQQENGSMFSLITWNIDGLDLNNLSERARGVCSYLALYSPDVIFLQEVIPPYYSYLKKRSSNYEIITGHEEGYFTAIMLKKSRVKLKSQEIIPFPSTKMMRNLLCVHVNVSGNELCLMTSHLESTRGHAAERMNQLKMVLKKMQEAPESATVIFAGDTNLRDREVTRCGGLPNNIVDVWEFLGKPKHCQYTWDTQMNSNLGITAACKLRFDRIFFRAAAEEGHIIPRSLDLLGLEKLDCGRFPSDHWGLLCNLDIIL
The test can be described thus: potency against TDP2 phosphodiesterase activity – biochemical, epi absorbance, IC50, dose response (AID 743297).

The nature of test [5]: non-specific 3'UTR reporter inhibition in Clone20-Shn3RL – cell-based, Renilla luciferase, cherry-picked, counter-screen for Shn3 inhibitor project, dose response (AID 624133). The format is functional.
A short description of another test: cells. The format is functional, cell-based. Particulars: HEK-CNG.
The target of another test is T2, Galanin receptor type 3 (Homo sapiens, UniProt O60755).
T2 sequence (O60755 whole entry): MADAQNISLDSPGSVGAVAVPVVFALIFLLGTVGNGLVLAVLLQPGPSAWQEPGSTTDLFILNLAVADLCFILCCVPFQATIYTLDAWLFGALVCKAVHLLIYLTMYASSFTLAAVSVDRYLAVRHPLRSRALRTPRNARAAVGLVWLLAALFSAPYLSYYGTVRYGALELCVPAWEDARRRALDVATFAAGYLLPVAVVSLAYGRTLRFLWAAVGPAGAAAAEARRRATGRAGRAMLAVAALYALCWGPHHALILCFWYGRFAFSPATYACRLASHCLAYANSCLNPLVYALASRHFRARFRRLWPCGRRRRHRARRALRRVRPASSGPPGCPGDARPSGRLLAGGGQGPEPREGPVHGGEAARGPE
Briefly: Fluorescence-based cell-based primary high throughput dose response assay to identify antagonists of the Galanin Receptor 3 (GalR3). In kind it is functional.

Test [6] can be described thus: reduction of Shn3 3'UTR-driven luciferase in osteoblasts – cell-based, Clone20 osteoblasts, firefly luciferase, cherry-picked, dose response (AID 624132).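 Also: firefly luciferase luminescence from reporter carrying the Shn3 3'UTR in osteoblasts.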 The format is functional.
In a further test the test system is INS1. Briefly: INS-1E survival protection against cytokine death – cell-based, luminescence, retest, dose response (AID 449756).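 Also: cell death triggered by IL-1 beta plus TNF-alpha plus IFN-gamma mixture; protective hits raise ATP signal compared with cytokine alone wells.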 Particulars: Rattus norvegicus. In kind it is functional.
The nature of test [7]: loss of viability in HepG2 cells – cell-based, CellTiter-Glo, cherry-picked, cytotoxicity control for Shn3 inhibitor project, dose response (AID 624134). The format is functional.
Test [8] in a line: off-target signal loss in HeLa-CEM21 co-culture – HeLa F-luc CTL cells, cherry-picked, counter-screen for HIV-1 Env fusion inhibitor project, dose response (AID 652040).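 Also: potency for signal decrease marking cytotoxic or nonspecific inhibition.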 The format is functional, cell-based.
Test [9] in a line: blockers of HIV-1 envelope-mediated cell-cell fusion – cherry-pick, dose response (AID 652057). The format is functional, cell-based.
A short description of test [10]: HIV-1 AD8 envelope cell-cell fusion blockers – cherry-pick, dose response (AID 652062).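 Also: luciferase signal from cell-cell fusion driven by HIV-1 clade B AD8 Env; potency is for inhibitors of fusion seen as a drop in luminescence.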 In kind it is functional, cell-based.
Test [11] is described as follows: blockers of HIV-1 ZM109 envelope-driven cell-cell fusion – HeLa effector, CEM target cells, luciferase, cherry-pick, dose response (AID 652058).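 Also: luciferase signal from HIV-1 Env mediated cell-cell fusion of effector and target cells.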 In kind it is functional, cell-based.
The target in test [12] is T3, Carboxy-terminal domain RNA polymerase II polypeptide A small phosphatase 1 (Homo sapiens, UniProt Q9GZU7).
T3 sequence (Q9GZU7 whole entry): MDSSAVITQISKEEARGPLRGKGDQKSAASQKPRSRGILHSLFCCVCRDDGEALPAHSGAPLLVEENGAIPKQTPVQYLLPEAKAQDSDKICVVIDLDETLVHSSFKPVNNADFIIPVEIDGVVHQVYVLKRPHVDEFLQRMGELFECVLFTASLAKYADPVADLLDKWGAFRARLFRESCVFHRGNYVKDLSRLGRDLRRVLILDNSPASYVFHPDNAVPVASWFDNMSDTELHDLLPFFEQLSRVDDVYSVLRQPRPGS
Briefly: CTDSP1 inhibitors, concentration-response, biochemical, absorbance readout, ultra-high-throughput screen actives (AID 540297). The format is functional.

A further test has as its target T4, Caspase-6 (Homo sapiens, UniProt P55212).
T4 sequence (P55212 whole entry): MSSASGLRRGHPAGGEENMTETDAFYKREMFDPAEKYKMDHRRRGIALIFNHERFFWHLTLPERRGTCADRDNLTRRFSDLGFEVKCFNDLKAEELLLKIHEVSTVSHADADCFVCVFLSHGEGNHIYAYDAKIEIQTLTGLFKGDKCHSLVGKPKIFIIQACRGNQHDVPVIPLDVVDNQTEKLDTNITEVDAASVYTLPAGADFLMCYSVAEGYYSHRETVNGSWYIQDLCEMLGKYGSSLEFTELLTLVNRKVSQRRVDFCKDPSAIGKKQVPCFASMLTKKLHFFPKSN
Briefly: inhibition of CASP6 peptide cleavage – biochemical, VEID-R110 fluorescence, cherry-pick, dose response (AID 720632).

Test [13] in a line: A2780 cell killing – plate reader, dry powder samples, cytotoxicity control, dose response (AID 743046). In kind it is functional, cell-based.
The next test concerns the target Paired box protein Pax-8 (Homo sapiens, UniProt Q06710). Briefly: PAX8 transcriptional activity inhibition in RMG-I – RMG-I cells, luciferase, cherry-pick, dose response (AID 687027).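 Also: luciferase reporter driven by Pax8 target thyroperoxidase promoter measured by SteadyGlo luminescence.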 The format is functional, cell-based.
The nature of test [14]: Luminescence Cell-Based Dose Confirmation HTS to Identify Inhibitors of Platelet Dense Granule Release. [Related pubchem assays: 1663 (Primary HTS), 1678 (Summary of Project)]. In kind it is functional.
Test [15] addresses Luciferin 4-monooxygenase (Photinus pyralis, UniProt P08659). Briefly: inhibition of purified Photinus pyralis luciferase – biochemical, luminescence, dose response (AID 1891).

Structures are written as SMILES. Active and inactive are the calls of the source. Bounds are passed on as bounds.

Disintegrin and metalloproteinase domain-containing protein 17, sequence (P78536 whole entry, the tested form may be a part): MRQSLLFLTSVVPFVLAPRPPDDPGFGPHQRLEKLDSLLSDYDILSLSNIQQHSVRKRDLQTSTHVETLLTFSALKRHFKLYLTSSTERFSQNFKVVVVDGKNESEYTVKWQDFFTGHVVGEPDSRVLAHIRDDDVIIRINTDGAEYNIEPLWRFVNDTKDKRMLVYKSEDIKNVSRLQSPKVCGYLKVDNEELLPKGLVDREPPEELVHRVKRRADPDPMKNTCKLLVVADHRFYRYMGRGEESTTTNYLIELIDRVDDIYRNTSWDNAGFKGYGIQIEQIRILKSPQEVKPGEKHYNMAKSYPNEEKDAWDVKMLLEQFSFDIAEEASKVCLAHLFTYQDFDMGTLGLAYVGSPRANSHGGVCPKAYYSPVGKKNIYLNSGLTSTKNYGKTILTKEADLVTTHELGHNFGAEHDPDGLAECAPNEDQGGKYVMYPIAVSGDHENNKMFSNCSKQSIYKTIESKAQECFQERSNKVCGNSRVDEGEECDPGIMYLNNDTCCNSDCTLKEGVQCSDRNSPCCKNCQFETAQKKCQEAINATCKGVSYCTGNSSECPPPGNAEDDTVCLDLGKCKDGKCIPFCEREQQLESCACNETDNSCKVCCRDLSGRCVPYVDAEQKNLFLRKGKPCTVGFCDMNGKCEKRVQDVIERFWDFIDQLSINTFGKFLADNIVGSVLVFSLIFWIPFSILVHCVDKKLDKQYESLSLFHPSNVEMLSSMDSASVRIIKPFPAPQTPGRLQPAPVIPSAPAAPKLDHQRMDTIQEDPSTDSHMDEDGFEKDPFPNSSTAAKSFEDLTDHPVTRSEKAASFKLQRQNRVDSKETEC
Luciferin 4-monooxygenase, sequence (P08659 whole entry): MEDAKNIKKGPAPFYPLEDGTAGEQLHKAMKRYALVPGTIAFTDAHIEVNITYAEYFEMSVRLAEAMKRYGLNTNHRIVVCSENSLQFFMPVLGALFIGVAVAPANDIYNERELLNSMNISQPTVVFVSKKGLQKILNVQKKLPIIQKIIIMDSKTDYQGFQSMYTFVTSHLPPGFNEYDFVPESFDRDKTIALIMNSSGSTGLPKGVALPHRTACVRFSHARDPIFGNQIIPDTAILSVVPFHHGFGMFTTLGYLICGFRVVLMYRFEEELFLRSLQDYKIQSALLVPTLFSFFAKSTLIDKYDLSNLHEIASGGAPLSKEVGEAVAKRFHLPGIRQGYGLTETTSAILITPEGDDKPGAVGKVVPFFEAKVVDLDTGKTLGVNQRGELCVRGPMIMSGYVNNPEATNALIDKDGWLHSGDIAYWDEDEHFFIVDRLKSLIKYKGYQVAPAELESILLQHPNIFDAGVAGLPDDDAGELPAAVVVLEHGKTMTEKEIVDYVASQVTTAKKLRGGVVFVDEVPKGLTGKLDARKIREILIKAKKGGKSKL
Paired box protein Pax-8, sequence (Q06710 whole entry): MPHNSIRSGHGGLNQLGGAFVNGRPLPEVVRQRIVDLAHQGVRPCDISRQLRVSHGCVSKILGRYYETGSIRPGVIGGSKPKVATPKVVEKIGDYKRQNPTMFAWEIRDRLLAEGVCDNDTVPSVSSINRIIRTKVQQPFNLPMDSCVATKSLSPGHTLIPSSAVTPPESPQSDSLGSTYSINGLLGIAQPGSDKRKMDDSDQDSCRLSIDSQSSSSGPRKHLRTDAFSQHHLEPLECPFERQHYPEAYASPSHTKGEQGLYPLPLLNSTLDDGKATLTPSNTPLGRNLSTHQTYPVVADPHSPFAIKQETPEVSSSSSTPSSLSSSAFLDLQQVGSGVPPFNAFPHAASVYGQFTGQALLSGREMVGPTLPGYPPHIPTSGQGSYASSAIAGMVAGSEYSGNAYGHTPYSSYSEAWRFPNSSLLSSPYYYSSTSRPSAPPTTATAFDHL

Regarding `Cc1cccc(NC(=O)CSc2nnc(SCc3ccc(Cl)cc3)s2)c1`, the IC50 in [1] and in [2] was > 69.4 µM (inactive) in each case.

In the case of `Clc1ccccc1N=Nc1ccccn1`, the IC50 in test [3] was > 100 µM (active); in [4] it was > 128 µM (inactive).

Regarding `COc1cccc(C(=O)c2c(-c3ccccc3)ncc3cc(OC)c(OC)cc23)c1`, the IC50 in [1] and in [2] was > 69.4 µM (inactive) in each case.

As for `NC(=O)c1ccc(N2CCN(S(=O)(=O)c3cccs3)CC2)c([N+](=O)[O-])c1`, the AC50 in [5] was 6.21 µM (active); in test [6] it was 0.305 µM (active); in the test with INS1, 3.67 µM (active); in test [7], 2.54 µM (active). Further, the EC50 in the test “cells” was > 29.9 µM (inactive). Also, the IC50 on Galanin receptor type 3 was 1.09 µM (active).

For `COc1ccc(C(O)(C2CCCCC2)C(CN2CCOCC2)c2ccccc2)cc1` (stereo not given), the AC50 is 7.26 µM (active) in test [8], 5.2 µM (active) in [9], 11.1 µM (active) in [10] and 1.09 µM (active) in test [11].

As to `COc1ccc(S(=O)(=O)NNC(=O)Cc2csc(C)n2)cc1[N+](=O)[O-]`, in test [12], the IC50 was 16.3 µM (active). Besides, the AC50 at Caspase-6 is 8.98 µM (active).

With `C[C@@H]1CN([C@H](C)CO)C(=O)c2c(c3ccccc3n2C)-c2ccccc2CO[C@H]1CN(C)S(=O)(=O)c1cccc(F)c1`, the AC50 in test [13] was 4.51 µM (active); at Paired box protein Pax-8 it was 19.2 µM (active).

In the case of `Cc1ccc(S(=O)(=O)N2CCC(=O)N([C@H](COC(=O)Nc3ccccc3)Cc3ccccc3)CC2)cc1`, the IC50 was > 69.4 µM (inactive) in test [1] and > 7.72 µM (active) in test [2].

In the case of `O=C(O)C1C2C=CC(C2)C1C(=O)NCc1cccs1` (stereo not given), the EC50 in test [14] and in test [15] was > 112 µM (not active) in each case. For the same compound, the AC50 on Caspase-6 is 14.8 µM (active).
